Measured values from patent US20260137689A1, “INTEGRATION OF MOLECULAR MECHANISMS IN THE STRIATUM AS A COMBINATION DRUG STRATEGY FOR THE TREATMENT OF PSYCHIATRIC AND NEUROLOGICAL DISORDERS IN WHICH ANHEDONIA OR MOTIVATION-RELATED DYSFUNCTION EXISTS” (Alto Neuroscience, Inc., priority 2021, published 2026).
Where two headings read alike, the source gives them in different places.

Tests used:
[1] = system: release of gamma-aminobutyric acid (GABA); conditions: cited from earlier work
D2 receptor = conditions: striatal slices from reserpinized rats (ref. 33); cited from earlier work
C57/BL6 mice = assay: Forced swim test; type: in vivo; conditions: FIG. 2 doses: imipramine 20 mg/kg, istradefylline 0.1 mg/kg, varenicline 0.17 mg/kg, alone or combined
Procedure: FIG. 2 is a bar graph of the time during a forced swim test after treatment with saline, 20 mg/kg for imipramine, 0.1 mg/kg for istradefylline, 0.17 mg/kg for varenicline, and a combination of 0.1 mg/kg for istradefylline and 0.17 mg/kg for varenicline.
Without being bound by a particular theory, the inventors theorized that an increase in dopamine release, when coupled with A2A antagonism, could result in an antidepressant response-essentially aiming to replace direct D2 agonism with a drug that leads to its release and to an increase in D2/D3 receptor availability. […] Of note, however, varenicline has been approved in humans for smoking cessation, and initially carried a black box for increased risk for development of depression, a seemingly opposite outcome to our goal. To determine whether such a combination is viable, we conducted forced swim tests in C57/BL6 mice. […] One such example is 5 mg-40 mg of istradefylline together with 0.25-3 mg of varenicline.
To determine whether such a combination is viable, forced swim tests in C57/BL6 mice were conducted. The forced-swim test is used to assess depressive-like behavior in mice. The time spent immobile is considered a measure of depressive-like behavior. Immobility scores for each mouse were determined by manual scoring.

dopamine release [2] = conditions: humans (ref. 44); cited from earlier work
Parkinson's models = Parkinson's models (ref. 47); cited from earlier work
D2/D3 receptor = conditions: rodents (refs. 45, 46); cited from earlier work
dopamine release [3] = conditions: rodents (ref. 43); cited from earlier work

Structure (SMILES): NC(C(=O)O)c1cc(O)ccc1Cl (racemic) [CHPG, (RS)-2-chloro-5-hydroxyphenylglycine]
- effect on GABA release by itself ([1]; alone (ref. 38)): ineffective by itself
- effect on quinpirole-induced change of neuronal activity (GABA release) ([1]; with the D2/D3 agonist quinpirole (ref. 38)): able to counteract the effects

Structure (SMILES): CCNC(=O)[C@H]1O[C@@H](n2cnc3c(N)nc(NCCc4ccc(CCC(=O)O)cc4)nc32)[C@H](O)[C@@H]1O [CGS 21680]
- effect on affinity of the D2 receptor for the D2/D3 agonist quinpirole (D2 receptor): decreased the affinity

Structure (SMILES): Nc1nc(NCCc2ccc(O)cc2)nc2nc(-c3ccco3)nn12 [ZM 241385]
- effect on affinity of the D2 receptor for the D2/D3 agonist quinpirole (D2 receptor): increased the affinity

Structure (SMILES): CN(C)CCCN1c2ccccc2CCc2ccccc21 [imipramine]
- antidepressant response (time spent immobile) in forced swim test (C57/BL6 mice): decrease in immobility

Structure (SMILES): c1cnc2cc3c(cc2n1)[C@@H]1CNC[C@H]3C1 [varenicline]
- antidepressant response (time spent immobile) in forced swim test (C57/BL6 mice): by themselves ineffective
- dopamine release (dopamine release [2]): increase dopamine release
- motor functioning (Parkinson's models): improve motor functioning
- D2/D3 receptor availability (D2/D3 receptor): increase D2/D3 receptor availability
- dopamine release (dopamine release [3]): increase dopamine release
